# Columns and labels:
# [1] = biological target: T1, glycine binding pocket of the NMDA receptor (Rattus norvegicus, UniProt P35439); experiment: [3H]-MDL-105,519 displacement studies on rat cortical membranes; conditions: displacement of 2 nM [3H]-MDL-105,519, rat cortical membranes, 4° C., 1 h; read-out: NMDA-MDL 105519-r-CTX - IC50
# T1 construct: The cortex is dissected out and processed as described by Parsons, et al; from tissue; host or cells: rat cerebral cortex membranes (male Sprague-Dawley)
# Method: [^3]MDL-105,519 Displacement Studies
# For the evaluation of the binding affinity of the test compounds on the glycine binding pocket of the NMDA receptor, [^3H]-MDL-105,519 (GE Healthcare, Freiburg, Germany) displacement studies are performed using a 96-well plate robotic platform. MDL-105,519 (Baron et al., J Pharmacol Exp Ther 1996, 279(1), 62-68; Baron et al., European Journal of Pharmacology, 1997, 323(2-3), 181-192; Hoffner & Wanner, Neuroscience Letters, 1997, 226(2), 79-82) is a selective, high affinity antagonist at the NMDA receptor glycine site.
# Tissue preparation is performed according to Foster & Wong (Br J Pharmacol, 1987, 91, 403-409) with some modifications. Anaesthetised male Sprague-Dawley rats (200-250 g, Janvier, Le Genest-Isle, France) are decapitated and their brains removed rapidly. The cortex is dissected out and processed as described by Parsons, et al. (J Pharmacol Exp Ther, 1997, 283(3), 1264-1275). For isolation of the cell membranes, the cortices are homogenized in 20 volumes of ice-cold 0.32 M sucrose (Sigma-Aldrich, Taufkirchen, Germany) using a glass-Teflon homogenizer. The homogenate is centrifuged at 1000×g for 10 minutes, the pellet is discarded and the supernatant centrifuged at 20,000×g for 20 minutes. The resulting pellet is re-suspended in 20 volumes of distilled water and centrifuged for 20 minutes at 8000×g. The supernatant and the buffy coat are then centrifuged three times (48,000×g for 20 minutes) in the presence of 50 mM Tris-HCl, pH 8.0 (assay buffer). All centrifugation steps are carried out at 4° C. After resuspension in 5 volumes of 50 mM Tris-HCl, pH 7.5, the membrane suspension is frozen rapidly at −80° C. On the day of assay, the membranes are thawed and washed four times by resuspension in 50 mM Tris-HCl, pH 7.5, and centrifugation at 48,000×g for 20 minutes. The final pellet is suspended in assay buffer. The amount of protein in the final membrane preparation is determined according to the method of Lowry, et al. (J. Biological Chemistry, 1951, 193, 256-275) with some modifications (Hartree, Analytical Biochemistry, 1972, 48, 422-427). The final protein concentration used for our studies is 400 μg/ml.
# A robotic system designed for binding assays (Tecan Deutschland GmbH, Crailsheim, Germany) is loaded with the membrane solution, solutions for bound control (buffer/DMSO 20%), unlabeled glycine (1 mM) for evaluation of non-specific binding, all compounds to be tested (at 20-fold concentrations), radioligand and respective 96-well plates.
# Before performing displacement studies, saturation experiments are performed to determine the equilibrium dissociation constant (Kd) of [^3H]-MDL-105,519, which is a parameter for the affinity of the radioligand to the binding site. The protein/receptor concentration is held constant whereas the amount of specific bound radioligand is determined using increasing concentrations of ligand.
# On the basis of the saturation experiments, a final [^3H]-MDL-105,519 concentration of 2 nM is selected. Firstly, the assay plates are loaded with membrane solution and are shaken at 4° C. The mother plates are then prepared by pipetting the compounds (n=4) into assay buffer/20% DMSO to obtain the desired final concentrations. After transferring radioligand into the assay plates, the compounds are added (including the bound and the non-specific binding control). The final DMSO concentration is 1%. The assay plates are incubated and shaken at 4° C. for 1 h, before the mixture is exhausted as rapidly as possible via a vacuum manifold using the Multiscreen HTS glass fibre (type B) filter plates (Millipore, Schwalbach, Germany) under a constant vacuum of 450 mbar. The membranes are washed four times with cold assay buffer (100 μL). […]
# [2] = biological target: T2, NMDA receptor glycine B site (Rattus norvegicus, UniProt P35439); experiment: Whole cell patch-clamp recordings in cultured rat hippocampal neurons (NMDA/D-Serine evoked currents); type: cell-based; conditions: NMDA (200 μM) and D-Serine (1 μM), holding potential −70 mV, read-out: NMDA-PC-r-HIC-NAM - IC50
# T2 construct: Hippocampi are then isolated from the brains of at least 8 embryos after decapitation; endogenous in cells; host or cells: primary cultured hippocampal neurons from E20 Sprague-Dawley rat embryos, 11-15 DIV
# Method: Antagonistic potencies of the test compounds are functionally evaluated using electrophysiological whole cell patch-clamp recordings and/or fluorometric intracellular Ca^2+-imaging (FLIPR) screens.
# Cell preparation is performed as described by Parsons, et al. (Neuropharmacology, 1998, 37(6), 719-727). The female Sprague-Dawley rat is anaesthetised by placing in a saturated CO2-euthanasia chamber under further quiet CO2-influx. Under these conditions the rat loses consciousness after a few seconds and is then sacrificed by cervical dislocation. After opening the abdominal cavity, embryos (E20) are removed and stored in ice cold Ca^2+- and Mg^2+-free Hank's Buffered Salt Solution (pH 7.3), containing 4 g/l glucose (HBSS-CMF). Hippocampi are then isolated from the brains of at least 8 embryos after decapitation, transferred into ice cold HBSS-CMF and washed 3 to 4 times.
# Hippocampi are pre-incubated for 8 min with a 0.66% trypsin (Sigma-Aldrich) and 0.1% (20 U/ml) DNAase solution (Sigma-Aldrich) in Ca^2+-free Phosphate Buffered Saline (PBS-CF) and washed 3 times with HBSS-CMF. Cells are then mechanically dissociated by trituration in a PBS-CF solution containing 0.05% (10 U/ml) DNAase and 0.3% of the trypsin inhibitor ovomucoid (all from Sigma-Aldrich). The cells are then centrifuged at 180×g for 10 minutes, and the cell pellet re-suspended in basal Minimum essential medium (MEM, Invitrogen, Karlsruhe, Germany), again carefully triturated to ensure maximal dissociation and finally plated in the flexiPERM inserts (Thermo Fisher Scientific, Langenselbold, Germany) at a density of 15×10^3 cells/cm^2 (0.5 ml/insert) onto poly-DL-ornithine (Sigma) and mouse laminin (Invitrogen) pre-coated plastic petri dishes. After 1 hour the cells become attached to the bottom of the dish and the inserts may be removed. The cells are then nourished with 2 ml MEM supplemented with 5% foetal calf serum (FCS) and 5% horse serum and incubated at 37° C. with 95% air and 5% CO2 at 95% humidity. After 4 days in vitro (DIV) further glial mitosis is inhibited by adding 10 μl of AraC (5 μM endconcentration). The medium is completely exchanged after an additional 2 DIV and again, but only partly (50%), after 8 DIV. The cells are used for electrophysiological recordings after 11-15 DIV.
# Cells are visualised using an inverted microscope and selected for patching based upon their position and morphology. Voltage clamp recordings are made in the whole cell configuration of the patch clamp technique at a holding potential of −70 mV with the aid of an EPC-10 amplifier in combination with pipette manipulator. Patch clamp pipettes are pulled from borosilicate glass using a horizontal puller (P-97 Puller, Sutter Instruments, USA) and, when filled with intracellular solution, have resistances of 1-4 MΩ.
# Solutions are delivered via a home-made gravity driven very fast perfusion system (<10 ms) including valves to switch flow on and off in combination with a stepper motor-driven double-barreled theta glass application pipette in order to expose cells to either agonist-free or agonist-containing solutions in presence or absence of antagonist.
# The intracellular solution used consists of: 120 mM CsCl, 10 mM EGTA, 1 mM MgCl2, 200 μM CaCl2, 10 mM glucose and 22 mM tetraethyl ammonium chloride (TEA-CL). The corresponding extracellular bath solution contains: 140 mM NaCl, 3 mM KCl, 10 mM glucose, 10 mM HEPES, 1.5 mM CaCl2 and 4.5 mM sucrose (all from Sigma-Aldrich) pH 7.3, and is supplemented with 0.3 μM tetrodotoxin (TTX, Tocris, Bristol, U.K.) to block voltage-activated sodium channels and 0.25 μM bicuculline (Sigma-Aldrich) to block GABAA receptors. […]
IC50 [1],IC50 [2],melting point,SMILES
450 nM,,,"O=C(O)c1cc2cc(Cl)ccc2nc1N[C@@H](Cc1ccc(Oc2nc3ccc(Cl)cc3cc2C(=O)O)cc1)C(=O)O [Example 8, 2-{(S)-1-Carboxy-2-[4-(3-carboxy-6-chloroquinolin-2-yloxy)-phenyl]-ethylamino}-6-chloro-quinoline-3-carboxylic acid]"
3300 nM,,,"O=C(O)c1cc2cc(Cl)ccc2nc1N[C@@H](CC1CCCCC1)C(=O)O [Example 35, 2-((S)-1-Carboxy-2-cyclohexyl-ethylamino)-6-chloro-quinoline-3-carboxylic acid]"
,754 nM,144 to 148 °C (dec.),"N.N.O=C(O)c1cc2cc(Cl)ccc2nc1NC(Cc1ccccc1F)C(=O)O (stereo not shown) [Example 40, 2-[1-Carboxy-2-(2-fluoro-phenyl)-ethylamino]-6-chloro-quinoline-3-carboxylic acid ammonium salt]"
,468 nM,140 to 141 °C,"O=C(O)c1cc2cc(Br)ccc2nc1N[C@H](Cc1ccccc1)C(=O)O [Example 47, 6-Bromo-2-((R)-1-carboxy-2-phenyl-ethylamino)-quinoline-3-carboxylic acid]"
,680 nM,> 250 °C,"Nc1cc(C[C@H](Nc2nc3ccc(Cl)cc3cc2C(=O)O)C(=O)O)ccc1Oc1nc2ccc(Cl)cc2cc1C(=O)O [Example 48, 2-{(S)-2-[3-Amino-4-(3-carboxy-6-chloro-quinolin-2-yloxy)-phenyl]-1-carboxy-ethylamino}-6-chloro-quinoline-3-carboxylic acid]"
,640 nM,> 250 °C (dec.),"O=C(O)c1cc2cc(Cl)ccc2nc1Nc1ccc(CC(Nc2nc3ccc(Cl)cc3cc2C(=O)O)C(=O)O)cc1 (stereo not shown) [Example 59, 2-{1-Carboxy-2-[4-(3-carboxy-6-chloro-quinolin-2-ylamino)-phenyl]-ethylamino}-6-chloro-quinoline-3-carboxylic acid]"
,250 nM,165 to 170 °C (dec.),"O=C(O)c1cc2cc(Cl)ccc2nc1NC(C(=O)O)C(C(=O)O)c1ccccc1 (stereo not shown) [Example 79, 2-(3-Carboxy-6-chloro-quinolin-2-ylamino)-3-phenyl-succinic acid]"
840 nM,,,"O=C(O)c1cc2cc(Cl)ccc2nc1N[C@@H](Cc1ccc(Oc2ccncc2Br)cc1)C(=O)O [Example 144, 2-{(S)-2-[4-(3-Bromo-pyridin-4-yloxy)-phenyl]-1-carboxy-ethylamino}-6-chloro-quinoline-3-carboxylic acid]"
,170 nM,,"O=C(O)c1cc2cc(Cl)ccc2nc1NC(Cc1ccccn1)C(=O)O (stereo not shown) [Example 149, 2-(1-Carboxy-2-pyridin-2-yl-ethylamino)-6-chloro-quinoline-3-carboxylic acid]"

# Second part, the compound before the results:
SMILES,IC50 [1],IC50 [2],melting point
"O=C(O)c1cc2cc(Cl)ccc2nc1N[C@@H](Cc1ccc(OCc2ccccc2)cc1)C(=O)O [Example 22, 2-[(S)-2-(4-Benzyloxy-phenyl)-1-carboxy-ethylamino]-6-chloro-quinoline-3-carboxylic acid]",2700 nM,,
"CC(c1ccccc1)C(Nc1nc2ccc(Cl)cc2cc1C(=O)O)C(=O)O (stereo not drawn) [Example 31, erythro-2-(1-Carboxy-2-phenyl-propylamino)-6-chloro-quinoline-3-carboxylic acid]",3370 nM,,
"O=C(O)c1cc2cc(Cl)c(Cl)cc2nc1N[C@@H](Cc1ccccc1)C(=O)O [Example 32, 2-((S)-1-Carboxy-2-phenyl-ethylamino)-6,7-dichloro-quinoline-3-carboxylic acid]",5800 nM,,
"O=C(O)c1cc2cc(Cl)ccc2nc1N[C@@H](Cc1ccc(Oc2ccc(Br)cn2)cc1)C(=O)O [Example 101, 2-{(S)-2-[4-(5-Bromo-pyridin-2-yloxy)-phenyl]-1-carboxy-ethylamino}-6-chloro-quinoline-3-carboxylic acid]",,420 nM,145 to 150 °C
"O=C(O)c1cc2cc(Cl)ccc2nc1N[C@@H](Cc1ccc(Oc2ccc(I)cn2)cc1)C(=O)O [Example 131, 2-{1-Carboxy-2-[4-(5-iodo-pyridin-2-yloxy)-phenyl]-ethylamino}-6-chloro-quinoline-3-carboxylic acid]",,170 nM,
"O=C(O)c1cc2cc(Cl)ccc2nc1N[C@@H](Cc1ccc(Oc2ccnc3cc(Cl)ccc23)cc1)C(=O)O [Example 142, 2-{(S)-1-Carboxy-2-[4-(7-chloro-quinolin-4-yloxy)-phenyl]-ethylamino}-6-chloro-quinoline-3-carboxylic acid]",1440 nM,,
"O=C(O)c1cc2cc(Cl)ccc2nc1N[C@@H](Cc1ccc(Oc2ccc3cc(Br)cnc3n2)cc1)C(=O)O [Example 147, 2-{(S)-2-[4-(6-Bromo-[1,8]naphthyridin-2-yloxy)-phenyl]-1-carboxy-ethylamino}-6-chloro-quinoline-3-carboxylic acid]",290 nM,,

# Source: patent publication US8288549B2, “Glycine B antagonist” (Merz Pharma GmbH & Co. KGaA, priority 2008, dated 2012)
